# Measured values taken from patent US20220331303A1, “USE OF AN OREXIN 2 RECEPTOR AGONIST FOR THE TREATMENT OF EXCESSIVE SLEEPINESS” (Takeda Pharmaceutical Company Limited, priority 2019, published 2022).
# Where “and” joins values, the source holds several entries; their conditions need not be identical. Identical values can stand only once. Entries after “also recorded” stand apart in the source; their conditions may differ.
# Tests used:
# [1] = tested on: sleep-deprived healthy volunteers; experiment: Maintenance of wakefulness test (MWT) in sleep-deprived healthy volunteers; type: in vivo, human; details: for Duration Total Microsleeps (MWT), LS Mean / Duration Total Microsleeps (MWT), LS Mean Difference vs placebo / Latency to Sleep Onset on MWT, LS Mean / Latency to Sleep Onset on MWT, LS Mean Difference vs placebo / Stage N1 Duration (MWT), LS Mean / Stage N1 Duration (MWT), LS Mean Difference vs placebo / Stage N2 Duration (MWT), LS Mean / Stage N2 Duration (MWT), LS Mean Difference vs placebo / Total Microsleeps (MWT), LS Mean / Total Microsleeps (MWT), LS Mean Difference vs placebo: Compound A 112 mg (HD)
# Procedure: The primary objective of this study was to determine the effect of Compound A (methyl (2R,3S)-3-((methylsulfonyl)amino)-2-(((cis-4-phenylcyclohexyl)oxy)methyl)piperidine-1-carboxylate), 44 mg (low dose [LD]) and 112 mg (high dose [HD]), after a single IV dose (compared to placebo) on promoting wakefulness as measured by sleep latency on the MWT (performed at approximately 2, 4, 6, and 8 hours post-dosing starting at approximately 1:00 AM and then at approximate times of 3:00, 5:00, and 7:00 AM) in sleep-deprived healthy volunteers.
# This was a phase 1b, single-center, randomized, double-blind, double-dummy, placebo- and active-controlled, 4-period Williams design crossover study to evaluate the PK, PD, and safety of Compound A in sleep-deprived healthy volunteers. Compound A was administered as a 9-hour IV infusion.
# Healthy adult male subjects aged 18 to 40 years, inclusive, who satisfied the inclusion and exclusion criteria were enrolled in the trial. On Day 1 of treatment period 1, eligible subjects were equally randomized to 4 treatment sequence groups (sequence 1 to 4) which defined the order of administration for Compound A LD, Compound A HD (both delivered as a 9-hour IV infusion), modafinil 300 mg, and placebo.
# (§1) During the day before dosing on Day 1, participants were administered the KSS at scheduled timepoints. A practice MWT session was performed on Day 1 treatment period 1 (only once during the entire study) to familiarize subjects with the procedures. Study drug was administered in the clinic in the evening on Day 1 of each treatment period. Subjects underwent the MWT and KSS at specified timepoints after the start of the infusion. Subjects were required to stay awake between the MWT tests. Following completion of the IV infusion on Day 2, subjects underwent an additional MWT test. When the final MWT test and cognitive testing were completed, subjects were allowed to sleep (recovery sleep) for approximately 6 hours. PSG recording was collected during this time. Subjects were discharged from the unit after completion on Day 2 with continuing actigraphy upon discharge (to begin on Day −6 before the next treatment period). The interval between each subsequent treatment period was at least 7 days to ensure that the subject's circadian rhythm had returned to a normal cycle. Subject's vital signs, including BP, were monitored during the dosing and testing period. Blood samples for determination of Compound A plasma concentrations were collected at specified timepoints on Days 1 and 2 of each treatment period. Subjects completed the Columbia-Suicide Severity Rating Scale (C-SSRS) during screening, before study drug administration, and before discharge on Day 2 of each treatment period.
# Primary endpoint: Latency for each MWT, defined as time to sleep onset.
# [2] = tested on: sleep-deprived healthy volunteers; experiment: Safety/tolerability of a single dose in sleep-deprived healthy adults; type: in vivo, human
# Procedure: as §1
# Safety endpoints: adverse events (AEs), physical examinations, vital signs, 12-lead electrocardiograms (ECGs), clinical laboratory evaluations (hematology, blood chemistry, and urinalysis), drug-liking visual analogue scale, and Profile of Mood States.
# [3] = average overall during infusion
# [4] = Compound A 112 mg, after the end of infusion (1 hour post end of infusion)
# [5] = HD: Compound A 112 mg, 2 HOURS POST INFUSION START
# [6] = HD: Compound A 112 mg, 4 HOURS POST INFUSION START
# [7] = HD: Compound A 112 mg, 6 HOURS POST INFUSION START
# [8] = HD: Compound A 112 mg, 8 HOURS POST INFUSION START
# [9] = HD: Compound A 112 mg, Average Overall, MWT during infusion
# [10] = LD: Compound A 44 mg, 2 HOURS POST INFUSION START
# [11] = LD: Compound A 44 mg, 4 HOURS POST INFUSION START
# [12] = LD: Compound A 44 mg, 6 HOURS POST INFUSION START
# [13] = LD: Compound A 44 mg, 8 HOURS POST INFUSION START
# [14] = LD: Compound A 44 mg, Average Overall, MWT during infusion
structure (smiles),measurement,setting,value
"COC(=O)N1CCC[C@H](NS(C)(=O)=O)[C@@H]1CO[C@H]1CC[C@@H](c2ccccc2)CC1 [Compound A, methyl (2R,3S)-3-((methylsulfonyl)amino)-2-(((cis-4-phenylcyclohexyl)oxy)methyl)piperidine-1-carboxylate]","Duration Total Microsleeps (MWT), LS Mean",[1]; 6 hours post infusion start,0.43 s
same,"Duration Total Microsleeps (MWT), LS Mean Difference vs placebo",[1]; 6 hours post infusion start,-6.97 s
same,"Latency to Sleep Onset on MWT, LS Mean",[1]; 6 hours post infusion start,38.36 min
same,"Latency to Sleep Onset on MWT, LS Mean Difference vs placebo",[1]; 6 hours post infusion start,32.21 min
same,"Stage N1 Duration (MWT), LS Mean",[1]; 6 hours post infusion start,0.07 min
same,"Stage N1 Duration (MWT), LS Mean Difference vs placebo",[1]; 6 hours post infusion start,-1.08 min
same,"Stage N2 Duration (MWT), LS Mean",[1]; 6 hours post infusion start,0.06 min
same,"Stage N2 Duration (MWT), LS Mean Difference vs placebo",[1]; 6 hours post infusion start,-0.44 min
same,"Total Microsleeps (MWT), LS Mean",[1]; 6 hours post infusion start,0.11
same,"Total Microsleeps (MWT), LS Mean Difference vs placebo",[1]; 6 hours post infusion start,−1.14
same,"Duration Total Microsleeps (MWT), LS Mean",[1]; 8 hours post infusion start,5.21 s
same,"Duration Total Microsleeps (MWT), LS Mean Difference vs placebo",[1]; 8 hours post infusion start,-2.59 s
same,"Latency to Sleep Onset on MWT, LS Mean",[1]; 8 hours post infusion start,36.86 min
same,"Latency to Sleep Onset on MWT, LS Mean Difference vs placebo",[1]; 8 hours post infusion start,33.33 min
same,"Stage N1 Duration (MWT), LS Mean",[1]; 8 hours post infusion start,0.18 min
same,"Stage N1 Duration (MWT), LS Mean Difference vs placebo",[1]; 8 hours post infusion start,-0.97 min
same,"Stage N2 Duration (MWT), LS Mean",[1]; 8 hours post infusion start,0.28 min
same,"Stage N2 Duration (MWT), LS Mean Difference vs placebo",[1]; 8 hours post infusion start,-0.82 min
same,"Total Microsleeps (MWT), LS Mean",[1]; 8 hours post infusion start,1.11
same,"Total Microsleeps (MWT), LS Mean Difference vs placebo",[1]; 8 hours post infusion start,−0.19
same,"Duration Total Microsleeps (MWT), LS Mean",[1]; [3],1.40 s
same,"Duration Total Microsleeps (MWT), LS Mean Difference vs placebo",[1]; [3],-7.68 s
same,"Latency to Sleep Onset on MWT, LS Mean",[1]; [3],38.82 min and 38.82 (1.955) min
same,"Latency to Sleep Onset on MWT, LS Mean Difference vs placebo",[1]; [3],30.21 min and 30.2 min and 30.21 (2.682) min
same,"Stage N1 Duration (MWT), LS Mean",[1]; [3],0.04 min
same,"Stage N1 Duration (MWT), LS Mean Difference vs placebo",[1]; [3],-1.23 min
same,"Stage N2 Duration (MWT), LS Mean",[1]; [3],0.09 min
same,"Stage N2 Duration (MWT), LS Mean Difference vs placebo",[1]; [3],-0.81 min
same,"Total Microsleeps (MWT), LS Mean",[1]; [3],0.31
same,"Latency to Sleep Onset on MWT, LS Mean (SE)",[1]; [4],2.36 (2.241)
same,"Latency to Sleep Onset on MWT, LS Mean Difference vs placebo, Estimate (SE)",[1]; [4],−2.29 (2.752)
same,Total Sleep Time LS Mean,[1]; [5],0.02 min
same,Total Sleep Time LS Mean Difference vs Placebo Estimate,[1]; [5],-2.71 min
same,Total Wake Time LS Mean,[1]; [5],39.89 min
same,Total Wake Time LS Mean Difference vs Placebo Estimate,[1]; [5],22.17 min
same,Total Sleep Time LS Mean,[1]; [6],-0.01 min
same,Total Sleep Time LS Mean Difference vs Placebo Estimate,[1]; [6],-3.16 min
same,Total Wake Time LS Mean,[1]; [6],40.08 min
same,Total Wake Time LS Mean Difference vs Placebo Estimate,[1]; [6],30.03 min
same,Total Sleep Time LS Mean,[1]; [7],0.21 min
same,Total Sleep Time LS Mean Difference vs Placebo Estimate,[1]; [7],-2.01 min
same,Total Wake Time LS Mean,[1]; [7],38.86 min
same,Total Wake Time LS Mean Difference vs Placebo Estimate,[1]; [7],32.44 min
same,Total Sleep Time LS Mean,[1]; [8],0.57 min
same,Total Sleep Time LS Mean Difference vs Placebo Estimate,[1]; [8],-2.35 min
same,Total Wake Time LS Mean,[1]; [8],37.36 min
same,Total Wake Time LS Mean Difference vs Placebo Estimate,[1]; [8],33.71 min
same,Total Sleep Time LS Mean,[1]; [9],0.20 min
same,Total Sleep Time LS Mean Difference vs Placebo Estimate,[1]; [9],-2.56 min
same,Total Wake Time LS Mean,[1]; [9],39.05 min
same,Total Wake Time LS Mean Difference vs Placebo Estimate,[1]; [9],29.59 min
same,Total Sleep Time LS Mean,[1]; [10],0.47 min
same,Total Sleep Time LS Mean Difference vs Placebo Estimate,[1]; [10],-2.26 min
same,Total Wake Time LS Mean,[1]; [10],35.73 min
same,Total Wake Time LS Mean Difference vs Placebo Estimate,[1]; [10],18.00 min
same,Total Sleep Time LS Mean,[1]; [11],1.27 min
same,Total Sleep Time LS Mean Difference vs Placebo Estimate,[1]; [11],-1.88 min
same,Total Wake Time LS Mean,[1]; [11],32.42 min
same,Total Wake Time LS Mean Difference vs Placebo Estimate,[1]; [11],22.37 min
same,Total Sleep Time LS Mean,[1]; [12],4.69 min
same,Total Sleep Time LS Mean Difference vs Placebo Estimate,[1]; [12],2.47 min
same,Total Wake Time LS Mean,[1]; [12],21.78 min
same,Total Wake Time LS Mean Difference vs Placebo Estimate,[1]; [12],15.36 min
same,Total Sleep Time LS Mean,[1]; [13],5.63 min
same,Total Sleep Time LS Mean Difference vs Placebo Estimate,[1]; [13],2.71 min
same,Total Wake Time LS Mean,[1]; [13],13.37 min
same,Total Wake Time LS Mean Difference vs Placebo Estimate,[1]; [13],9.72 min
same,Total Sleep Time LS Mean,[1]; [14],3.02 min
same,Total Sleep Time LS Mean Difference vs Placebo Estimate,[1]; [14],0.26 min
same,Total Wake Time LS Mean,[1]; [14],25.83 min
same,Total Wake Time LS Mean Difference vs Placebo Estimate,[1]; [14],16.36 min
same,Compound A plasma concentration at which magnitude of wake-promoting effects appeared to diminish over time,[1]; sleep latency vs plasma concentration by MWT session (FIG. 8),less than 200 ng/mL
same,Effect on BP and pulse,[2]; Compound A 44 mg,minimal effect
same,"Drug-related TEAE of liver function test increased, number of subjects","[2]; Compound A 112 mg, mild intensity",1 subject
same,Serious adverse events (SAEs),[2]; Compound A 44 and 112 mg treatments,no SAEs were observed
same,Changes in DBP versus Compound A plasma concentration,[2]; change from time-matched baseline,appeared to increase with increasing concentration
same,Tolerability,"[2]; single dose 44 mg or 112 mg, slow infusion over 9 hours, healthy volunteers",well-tolerated with no major safety concerns; also recorded: well tolerated overall
